Measured values reported in patent US9302999B2, “Substituted triazoles as herbicides” (E. I. DU PONT DE NEMOURS AND COMPANY, priority 2012, dated 2016).
Where two headings read alike, the source gives them in different places.

Columns and labels:
Format in all cases: in vivo
[1] = system: ryegrass, Italian (Italian ryegrass, Lolium multiflorum); assay: Test C pre-/postemergence: ryegrass, Italian
Text: (§1) Seeds of plant species selected from blackgrass (Alopecurus myosuroides), bromegrass, downy (downy bromegrass, Bromus tectorum), foxtail, green (green foxtail, Setaria viridis), ryegrass, Italian (Italian ryegrass, Lolium multiflorum), winter wheat (Triticum aestivum), wild oat (Avena fatua), galium (catchweed bedstraw, Galium aparine), bermudagrass (Cynodon dactylon), surinam grass (Brachiaria decumbens), cocklebur (common cocklebur, Xanthium strumarium), corn (Zea mays), large crabgrass (Digitaria sanguinalis), woolly cupgrass (Eriochloa villosa), foxtail, giant (giant foxtail, Setaria faberii), goosegrass (Eleusine indica), johnsongrass (Sorghum halepense), kochia (Kochia scoparia), lambsquarters (Chenopodium album), morningglory (Ipomoea coccinea), nightshade (eastern black nightshade, Solanum ptycanthum), nutsedge, yellow (yellow nutsedge, Cyperus esculentus), pigweed (Amaranthus retroflexus), ragweed (common ragweed, Ambrosia elation), soybean (Glycine max), common (oilseed) sunflower (Helianthus annuus), Russian thistle (Salsola kali) and velvetleaf (Abutilon theophrasti) were planted into a blend of loam soil and sand and treated preemergence with test chemicals formulated in a non-phytotoxic solvent mixture which included a surfactant.
(§2) At the same time, plants selected from these crop and weed species and also barley (winter barley, Hordeum vulgare), canarygrass (Phalaris minor), chickweed (common chickweed, Stellaria media) windgrass (Apera spica-venti) and deadnettle (henbit deadnettle, Lamium amplexicaule) were planted in pots containing Redi-Earth® planting medium (Scotts Company, 14111 Scottslawn Road, Marysville, Ohio 43041) comprising spaghnum peat moss, vermiculite, wetting agent and starter nutrients and treated with postemergence applications of test chemicals formulated in the same manner. Plants ranged in height from 2 to 18 cm (1- to 4-leaf stage) for postemergence treatments.
(§3) Treated plants and controls were maintained in a greenhouse for 13 to 15 days, after which time all species were compared to controls and visually evaluated. Plant response ratings, summarized in Table C, are based on a scale of 0 to 100 where 0 is no effect and 100 is complete control. A dash (-) response means no test result.

[2] = system: foxtail, giant (giant foxtail, Setaria faberii); assay: Test A pre-/postemergence: foxtail, giant; settings: for pest or weed control at 125 g/ha / pest or weed control at 500 g/ha: Setaria faberi, 240 h
Outline: (§4)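 Compounds, formulated with surfactant in non-phytotoxic solvent, were applied as a directed soil spray preemergence and as postemergence sprays to 2–10 cm, one- to two-leaf seedlings grown in loam soil blended with sand; visual injury, 0–100, assessed ~10 days post-treatment against untreated controls.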

[3] = system: lambsquarters (Chenopodium album); assay: Test C pre-/postemergence: lambsquarters
Text: as §1, §2, §3

[4] = system: corn (Zea mays); assay: Test A pre-/postemergence: corn
Outline: as §4

[5] = system: crabgrass, large (large crabgrass, Digitaria sanguinalis); assay: Test A pre-/postemergence: crabgrass, large; settings: for pest or weed control at 125 g/ha / pest or weed control at 500 g/ha: Digitaria sanguinalis, 240 h
Outline: as §4

[6] = system: wheat (Triticum aestivum); assay: Test A pre-/postemergence: wheat; settings: for plant injury at 125 g/ha / plant injury at 500 g/ha: Triticum aestivum, 240 h
Outline: as §4

[7] = system: johnsongrass (Sorghum halepense); assay: Test C pre-/postemergence: johnsongrass
Outline: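 Visual injury scored 0–100 (100 = complete control) against untreated controls after 13–15 greenhouse days. Surfactant-containing solvent formulations applied either to soil after sowing (loam/sand) or over 1- to 4-leaf plants, 2–18 cm tall.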

[8] = system: velvetleaf (Abutilon theophrasti); assay: Test C pre-/postemergence: velvetleaf
Text: as §1, §2, §3

[9] = Postemergence, 31 g ai/ha, scale 0 to 100 (0 no effect, 100 complete control)
[10] = Postemergence, 62 g ai/ha, scale 0 to 100 (0 no effect, 100 complete control)
[11] = Postemergence, 125 g ai/ha, scale 0 to 100, 0 no effect, 100 complete control
[12] = Postemergence, 250 g ai/ha, scale 0 to 100
[13] = Preemergence, 31 g ai/ha, scale of 0 to 100, 0 is no effect, 100 is complete control
[14] = Preemergence, 62 g ai/ha, scale of 0 to 100, 0 is no effect, 100 is complete control
[15] = Preemergence, 125 g ai/ha, scale 0 to 100, 0 no effect, 100 complete control
[16] = Preemergence, 250 g ai/ha, scale 0 to 100, 0 no effect, 100 complete control
[17] = Postemergence, 125 g ai/ha, 0 to 100 scale, 0 is no effect, 100 is complete control
[18] = Postemergence, 500 g ai/ha, visual rating on 0 to 100 scale (0 no effect, 100 complete control), approximately ten days
[19] = Preemergence, 125 g ai/ha, 0 to 100 scale (0 no effect, 100 complete control)
[20] = Preemergence, 500 g ai/ha, 0 to 100 scale, 0 is no effect, 100 is complete control

Cc1nn(-c2ccc(C(F)(F)F)cn2)nc1Oc1ccnc(C(F)(F)F)c1 [Compound 23]
Plant response rating, Ryegrass, Italian [1, 9]: 5 | Plant response rating, Ryegrass, Italian [1, 10]: 10 | Plant response rating, Ryegrass, Italian [1, 11]: 10 | Plant response rating, Ryegrass, Italian [1, 12]: 15 | Plant response rating, Ryegrass, Italian [1, 13]: 0 | Plant response rating, Ryegrass, Italian [1, 14]: 5 | Plant response rating, Ryegrass, Italian [1, 15]: 25 | Plant response rating, Ryegrass, Italian [1, 16]: 70 | Foxtail, Giant plant response rating [2, 17]: 90 | Foxtail, Giant plant response rating [2, 18]: 90 | Plant response rating, Foxtail, Giant [2, 19]: 100 | Plant response rating, Foxtail, Giant [2, 20]: 100 | Plant response rating, Lambsquarters [3, 9]: 40 | Plant response rating, Lambsquarters [3, 10]: 40 | Plant response rating, Lambsquarters [3, 11]: 98 | Plant response rating, Lambsquarters [3, 12]: 98 | Plant response rating, Lambsquarters [3, 13]: 95 | Plant response rating, Lambsquarters [3, 14]: 98 | Plant response rating, Lambsquarters [3, 15]: 98 | Plant response rating, Lambsquarters [3, 16]: 100 | Corn plant response rating [4, 17]: 30 | Corn plant response rating [4, 18]: 50 | Plant response rating, Corn [4, 19]: 10 | Plant response rating, Corn [4, 20]: 40 | Crabgrass, Large plant response rating [5, 17]: 90 | Crabgrass, Large plant response rating [5, 18]: 90 | Plant response rating, Crabgrass, Large [5, 19]: 100 | Plant response rating, Crabgrass, Large [5, 20]: 100 | Wheat plant response rating [6, 17]: 20 | Wheat plant response rating [6, 18]: 50 | Plant response rating, Wheat [6, 19]: 0 | Plant response rating, Wheat [6, 20]: 70 | Plant response rating, Johnsongrass [7, 9]: 5 | Plant response rating, Johnsongrass [7, 10]: 10 | Plant response rating, Johnsongrass [7, 11]: 10 | Plant response rating, Johnsongrass [7, 12]: 20 | Plant response rating, Johnsongrass [7, 13]: 55 | Plant response rating, Johnsongrass [7, 14]: 75 | Plant response rating, Johnsongrass [7, 15]: 95 | Plant response rating, Johnsongrass [7, 16]: 98 | Plant response rating, Velvetleaf [8, 9]: 15 | Plant response rating, Velvetleaf [8, 10]: 25 | Plant response rating, Velvetleaf [8, 11]: 40 | Plant response rating, Velvetleaf [8, 12]: 50 | Plant response rating, Velvetleaf [8, 13]: 5 | Plant response rating, Velvetleaf [8, 14]: 25 | Plant response rating, Velvetleaf [8, 15]: 80 | Plant response rating, Velvetleaf [8, 16]: 100

FC(F)(F)COc1nn(-c2ccc(C(F)(F)F)cc2)nc1Cc1ccnc(C(F)(F)F)c1 [Compound 14, 4-[[5-(2,2,2-trifluoroethoxy)-2-[4-(trifluoromethyl)phenyl]-2H-1,2,3-triazol-4-yl]methyl]-2-(trifluoromethyl)pyridine]
Plant response rating, Ryegrass, Italian [1, 9]: 30 | Plant response rating, Ryegrass, Italian [1, 10]: 35 | Plant response rating, Ryegrass, Italian [1, 11]: 35 | Plant response rating, Ryegrass, Italian [1, 12]: 40 | Plant response rating, Ryegrass, Italian [1, 13]: 10 | Plant response rating, Ryegrass, Italian [1, 14]: 35 | Plant response rating, Ryegrass, Italian [1, 15]: 60 | Plant response rating, Ryegrass, Italian [1, 16]: 85 | pest or weed control at 125 g/ha ([2]; post-emergence, Postemergence, 125 g ai/ha, 0 to 100 scale, 0 is no effect, 100 is complete control, read-out: Foxtail, Giant plant response rating): 80% | pest or weed control at 500 g/ha ([2]; post-emergence, Postemergence, 500 g ai/ha, visual rating on 0 to 100 scale (0 no effect, 100 complete control), approximately ten days, read-out: Foxtail, Giant plant response rating): 90% | pest or weed control at 125 g/ha ([2]; pre-emergence, Preemergence, 125 g ai/ha, 0 to 100 scale (0 no effect, 100 complete control), read-out: Plant response rating, Foxtail, Giant): 100% | pest or weed control at 500 g/ha ([2]; pre-emergence, Preemergence, 500 g ai/ha, 0 to 100 scale, 0 is no effect, 100 is complete control, read-out: Plant response rating, Foxtail, Giant): 100% | Plant response rating, Lambsquarters [3, 9]: 100 | Plant response rating, Lambsquarters [3, 10]: 100 | Plant response rating, Lambsquarters [3, 11]: 100 | Plant response rating, Lambsquarters [3, 12]: 100 | Plant response rating, Lambsquarters [3, 13]: 95 | Plant response rating, Lambsquarters [3, 14]: 100 | Plant response rating, Lambsquarters [3, 15]: 100 | Plant response rating, Lambsquarters [3, 16]: 100 | plant injury at 125 g/ha ([4]; Zea mays, post-emergence, 240 h, Postemergence, 125 g ai/ha, 0 to 100 scale, 0 is no effect, 100 is complete control, read-out: Corn plant response rating): 20% | plant injury at 500 g/ha ([4]; Zea mays, post-emergence, 240 h, Postemergence, 500 g ai/ha, visual rating on 0 to 100 scale (0 no effect, 100 complete control), approximately ten days, read-out: Corn plant response rating): 40% | Corn plant response rating (crop injury, 0 = no effect, 100 = complete kill) at 125 g/ha ([4]; Zea mays, pre-emergence, 240 h, Preemergence, 125 g ai/ha, 0 to 100 scale (0 no effect, 100 complete control)): 20% | Corn plant response rating (crop injury, 0 = no effect, 100 = complete kill) at 500 g/ha ([4]; Zea mays, pre-emergence, 240 h, Preemergence, 500 g ai/ha, 0 to 100 scale, 0 is no effect, 100 is complete control): 30% | pest or weed control at 125 g/ha ([5]; post-emergence, Postemergence, 125 g ai/ha, 0 to 100 scale, 0 is no effect, 100 is complete control, read-out: Crabgrass, Large plant response rating): 80% | pest or weed control at 500 g/ha ([5]; post-emergence, Postemergence, 500 g ai/ha, visual rating on 0 to 100 scale (0 no effect, 100 complete control), approximately ten days, read-out: Crabgrass, Large plant response rating): 90% | pest or weed control at 125 g/ha ([5]; pre-emergence, Preemergence, 125 g ai/ha, 0 to 100 scale (0 no effect, 100 complete control), read-out: Plant response rating, Crabgrass, Large): 90% | pest or weed control at 500 g/ha ([5]; pre-emergence, Preemergence, 500 g ai/ha, 0 to 100 scale, 0 is no effect, 100 is complete control, read-out: Plant response rating, Crabgrass, Large): 100% | plant injury at 125 g/ha ([6]; post-emergence, Postemergence, 125 g ai/ha, 0 to 100 scale, 0 is no effect, 100 is complete control, read-out: Wheat plant response rating): 30% | plant injury at 500 g/ha ([6]; post-emergence, Postemergence, 500 g ai/ha, visual rating on 0 to 100 scale (0 no effect, 100 complete control), approximately ten days, read-out: Wheat plant response rating): 50% | plant injury at 125 g/ha ([6]; pre-emergence, Preemergence, 125 g ai/ha, 0 to 100 scale (0 no effect, 100 complete control), read-out: Plant response rating, Wheat): 30% | plant injury at 500 g/ha ([6]; pre-emergence, Preemergence, 500 g ai/ha, 0 to 100 scale, 0 is no effect, 100 is complete control, read-out: Plant response rating, Wheat): 50% | Plant response rating, Johnsongrass [7, 9]: 20 | Plant response rating, Johnsongrass [7, 10]: 20 | Plant response rating, Johnsongrass [7, 11]: 55 | Plant response rating, Johnsongrass [7, 12]: 75 | Plant response rating, Johnsongrass [7, 13]: 20 | Plant response rating, Johnsongrass [7, 14]: 45 | Plant response rating, Johnsongrass [7, 15]: 80 | Plant response rating, Johnsongrass [7, 16]: 85 | Plant response rating, Velvetleaf [8, 9]: 75 | Plant response rating, Velvetleaf [8, 10]: 80 | Plant response rating, Velvetleaf [8, 11]: 85 | Plant response rating, Velvetleaf [8, 12]: 90 | Plant response rating, Velvetleaf [8, 13]: 10 | Plant response rating, Velvetleaf [8, 14]: 10 | Plant response rating, Velvetleaf [8, 15]: 70 | Plant response rating, Velvetleaf [8, 16]: 75
